Assay results published in PubChem BioAssay AID179 (DTP/NCI, 2004).
Values joined by “and” are separate entries in the source; they are usually repeats but may differ in a detail not shown here. Equal entries are not always repeated. Active and inactive are the calls of the source.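 How the source made its calls: active means compounds giving half or more protection of infected cells from virus-caused growth loss, again on retest; inactive means the rest.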 Where a SMILES comes first, the peptide text is derived from it. The star is where a group is joined. Boc = CC(C)(C)OC(=O)*

System: CEM cells HIV-1 protection, formazan growth assay
Experiment: NCI AIDS Antiviral Assay
Settings: for IC50: measured here: growth of uninfected CEM cells
Experimental: The ability of compounds to protect human CEM cells from HIV-1 infection is measured as a screen for new compounds capable of inhibiting the HIV virus. Five concentrations of drug were tested on uninfected and infected cells and cell growth was measured using a soluble formazan assay. […] Compounds that provided at least 50% protection were retested. Compounds that provided at least 50% protection on retest were listed as moderately active. Compounds that reproducibly provided 100% protection were listed as confirmed active. […] Note that the inability to provide protection could be due to toxicity.

SMILES	EC50	IC50	outcome
CC1=CC(=O)N(c2c(C)cccc2Cl)C(C)N1 (stereo unspecified)	> 1000 µM	> 1000 µM	
CC(NC(=O)C(NC(=O)C(NC(=O)C(F)(F)F)C(C)C)C(C)C)C(=O)Oc1c(Cl)c(Cl)c(Cl)c(Cl)c1Cl (stereo unspecified)	> 200 µM	141 µM	
Nc1nc(C[P+](c2ccccc2)(c2ccccc2)c2ccccc2)c(CCCCc2ccccc2)c(=O)[nH]1	> 200 µM	33.1 µM	
C=CCNC(=S)Nc1ccccn1	> 200 µM	> 200 µM	
Cc1cc(NS(=O)(=O)c2ccc(Nc3c4ccccc4nc4c(C(=O)N5CCN(CCO)CC5)cccc34)cc2)no1	> 38 µM	> 38 µM	
CNC(=O)c1ncn(C2OC(CO)C(O)C2O)n1 (stereo unspecified)	> 200 µM	> 200 µM	
C[Si](C)(CCC(=O)O)O[Si](C)(C)CCC(=O)O	> 646 µM	> 646 µM	
CC1(O)CCC2(CCC(C)(O)CC2=O)C(=O)C1 (stereo unspecified)	> 200 µM	> 200 µM	
COC(=O)C1(Cc2ccccc2)Cc2cc3c(cc2C1O)CCC3 (stereo unspecified)	> 200 µM	24 µM	
O=c1c2cc([N+](=O)[O-])ccc2n2n1Cc1ccccc1CC2	> 200 µM	> 200 µM	
O=[N+]([O-])c1ccccc1NC1CCN(CCCC2(c3ccc(F)cc3)OCCO2)CC1	> 200 µM	12.9 µM	
COC(=O)[C@@H]1C[C@H]([Se]c2ccccc2)CN1C(=O)OCc1ccccc1			inactive
O=C1CCCCCCCCCCC1CN(Cc1ccccc1)Cc1ccccc1 (stereo unspecified)			inactive
S=C1CCSc2c(ccc3ccccc23)N1	> 200 µM	166 µM	
Nc1nn2cc3c(nc2c1N=Nc1ccccc1)CCCC3	> 200 µM	4.47 µM	
CSc1nc(SC)c(Nc2cccc(C)c2)c(SC)n1	> 200 µM	3.47 µM	
C/C=N\N1C(=O)c2ccccc2C1=O	> 191 µM	> 191 µM	
Cc1ccccc1N(C)S(=O)(=O)c1ccccc1[N+](=O)[O-]	> 200 µM	38.9 µM	
Nc1nnc(Cc2ccccc2[N+](=O)[O-])c(=O)[nH]1	> 29.5 µM	> 29.5 µM	
c1ccn2nnnc2c1	> 2090 µM	> 2090 µM	
Oc1ccc([C@H]2c3c(O)cc(O)cc3C3c4c(cc(O)cc4[C@@H]2[C@H]2c4cc(O)cc5c4C(c4cc(O)cc(O)c4[C@@H]2c2ccc(O)cc2)[C@@H](c2ccc(O)cc2)O5)O[C@@H]3c2ccc(O)cc2)cc1 (stereo partly specified)	> 100 µM	13.8 µM	
CCOC(=O)C[n+]1cccc(C2(c3cc4ccccc4[nH]3)OCCO2)c1	> 200 µM	> 200 µM	

SMILES	EC50	IC50	outcome
COC1(OC)c2no[n+]([O-])c2C(OC)(OC)c2c1no[n+]2[O-]	> 200 µM	3.89 µM	
O=C(O)CCCc1cc2c(s1)-c1cccc3cccc-2c13	> 33.9 µM	> 33.9 µM	
O=C1c2cscc2C(=O)c2c(Cl)sc(Cl)c21	> 0.2 µM	> 0.2 µM	
COc1cc(C)cc2c1C(=O)C(Br)=CC2=O	> 200 µM	1.95 µM	
CC(=O)[C@H]1[C@H](O)C[C@@]2(C)[C@@H]3CCc4cc(O)c(OC5OC(CO)C(O)C(O)C5O)cc4C3(C)C(=O)C[C@]12C (stereo partly specified)	> 200 µM	> 200 µM	
COC(=O)CNC(=O)C(CC(C)C)NC(=O)C(CC(C)C)NC(=O)OC(C)(C)C (stereo not drawn) (Boc-Leu-Leu-Gly-OMe; configuration not given here)			inactive
CC(=O)N(CN1C(=O)CCC1C(=O)O)c1cccc(O)c1 (stereo unspecified)			inactive
Cc1c2ccccc2nc(CSCC(O)CO)[n+]1[O-] (stereo unspecified)	> 200 µM	> 200 µM	
CC1Sc2ccccc2-c2[nH]c3ccccc3c21 (stereo unspecified)	> 200 µM	10.2 µM	
O=C(O)/C=C/SCCC(=O)O	> 1410 µM	> 1410 µM	
COc1ccc([C@@]2(O)c3c(ccc(O)c3OC)[C@H]2OC)c(OC)c1	> 15.8 µM	9.33 µM	
O=S1(=O)CC2(N3CCCCC3)CCCCC21 (stereo unspecified)	> 891 µM	219 µM	
C/C(=N\Nc1ccccc1)c1sc(-c2nc(C)c(/C(C)=N/Nc3ccccc3)s2)nc1C	> 15.5 µM	> 15.5 µM	
COc1ccccc1/C=N/Nc1nnc2c3ccccc3c3ncccc3c2n1	> 200 µM	138 µM	
O=C1OC2C=CC1C1(CCOC1=O)C2 (stereo unspecified)	> 200 µM	> 200 µM	
O/N=C1/CCCC/C1=C/c1ccc(Cl)cc1			inactive
CCN(CC)CCOC(=O)c1cc2cc([N+](=O)[O-])ccc2oc1=O	> 214 µM	> 214 µM	
COC(=O)c1cc(/C=C/C(=O)Cc2ccccc2)cn1S(=O)(=O)c1ccccc1	> 200 µM	> 200 µM	
Cc1ccc(/C(C#N)=C/c2ccc3c(c2)OCO3)cc1	> 200 µM	10 µM	
OC12c3ccccc3C1(N1CCOCC1)CCCCC21OCCCO1 (stereo unspecified)	170 µM	295 µM	
N=C(N)SCc1c2ccccc2c(CSC(=N)N)c2ccccc12	> 20 µM	3.16 µM	
O=C1COc2ccc([N+](=O)[O-])cc2C(=O)C1	> 200 µM	> 200 µM	

SMILES	EC50	IC50	outcome
O=C(CNN1C(=O)CSC1=Nc1cccc2ccccc12)c1cccc2c1Nc1ccccc1S2			inactive
COS(=O)c1cc(Cl)cc(Cl)c1O (stereo unspecified)			inactive
CCCc1cc(=O)oc2c3c(c4c(c12)OC(C)(C)CC4)O[C@H](C)C(C)C3O (stereo partly specified)	> 200 µM	25.1 µM	
COc1cc([C@@H]2c3cc4c(c(O)c3C[C@H]3COC(=O)[C@@H]32)OCO4)cc(OC)c1O	> 3.24 µM	0.00174 µM	
CCOC(=O)C(=Cc1ccccc1[N+](=O)[O-])C(=O)OCC	> 324 µM	5.89 µM	
CC(=O)OC1CC2C(C)(C)C(=O)C=C[C@]2(C)C2CCC3(C)C(=CCC3[C@H](CO)C[C@H](O)C(=O)C(C)(C)O)[C@]12C (stereo partly specified)	> 47.9 µM	18.6 µM	
CC1=C2c3c(C)ccc4ccc(C)c(c34)C2(O)C(C)C1=O (stereo unspecified)	> 200 µM	> 200 µM	
Cc1csc2nc3[nH]ncc3c(=O)n12	> 200 µM	97.7 µM	
O=[N+]([O-])c1cccnc1NCC1(CO)CCCC1	> 200 µM	46.8 µM	
CCOC(=O)CC1(C)SCCN1C(=O)OCC (stereo unspecified)	> 200 µM	> 200 µM	
S=c1sc2ccccc2n1CNc1ccccc1Cl	> 200 µM	28.2 µM	
COc1ccccc1Nc1nc(NNC(=O)Cc2ccccc2)nc(NNC(=O)c2ccncc2)n1	> 50.1 µM	> 50.1 µM	
CO[C@]12[C@@H](COC(=O)NCCO)C3=C(C(=O)C(C)=C(N)C3=O)N1C[C@@H]1[C@H]2N1C (stereo partly specified)	> 200 µM	52.5 µM	
COCOc1ccc(C(=O)Oc2cccc3c2OC(C)(C)O3)c(OCOC)c1	> 200 µM	35.5 µM	
COC(=O)C1Cc2c([nH]c3ccccc23)-c2[nH]c3ccccc3c2CC(NC(C)=O)C(=O)N2CCCC2C(=O)N1 (stereo unspecified)	> 200 µM	36.3 µM	
CN1/C(=C/C=C/C=C/C=C2C(=O)c3ccccc3C2=O)C(C)(C)c2ccccc21	120 µM	151 µM	
CC(C)SC1CC2C(CC1(C)O)C2(C)C (stereo unspecified)	> 200 µM	> 200 µM and 91.2 µM	
CS(=O)(=O)NC12CCC(c3ccccc31)c1ccccc12	> 200 µM	> 200 µM	
CC1(C)CC(=O)C2=C(C1)OC(N)=C(c1nc(-c3ccccc3)cs1)C2c1ccc(Br)cc1 (stereo unspecified)	> 200 µM	22.9 µM	
CC1=CCCC(C)C1(C)CC/C(C)=C/CC/C(C)=C/CS(=O)(=O)CCN=C(N)N (stereo unspecified)	> 61.7 µM	10.7 µM	
